Patent US20030207819A1, “Compositions and methods for treating inflammatory connective tissue diseases” (priority 2002, published 2003)
“Also recorded” adds a separate entry of the source.

What was measured:
Format in all cases: in vivo, human
[1] = test system: patient with undifferentiated connective tissue disease; assay: Example 1: clinical observation of patient on clarithromycin; conditions: person
Text: We elected to continue them on this antibiotic. […] Because the patient was on Lodine (NSAID) at the same time, we elected to see if they could stop the Lodine and still have relief of symptoms.

[2] = test system: patient with undifferentiated connective tissue disease; assay: Example 2: clarithromycin re-challenge of Example 1 patient, symptoms and laboratory assessments
Protocol: (§1) Subsequent to the observations made in Example 1, the patient was re-challenged with clarithromycin, and re-evaluated as to symptomatic efficiency. In parallel with clinical observations, laboratory assessments including erythrocyte sedimentation rate, C-reactive protein, and serum interleukins 1 and 6 were measured. The laboratory results are illustrated in Table 1.
On Jul. 29, 2002 the clarithromycin treatment of the patient from Example 1 was discontinued (Table 1). Their additional medications included: ZESTRIL® (Astra Zenica) at 1 mg/t.i.d., CALTRATE® with Vitamin D (Wyeth)/b.i.d., UNITHROID™ (Jerome Stevens Pharmaceuticals, Inc.) at 0.05 mg/day, TROZODONE® (Watson Laboratories, Inc.) at 50 mg/h.s., TYLENOL® (McNeil Consumer Brands) at 1 gm/p.r.n., multi-vitamins/p.r.n., iron tablets, quinine at 260 mg, and non-specific herbs. […] When the patient was observed on Aug. […] The symptoms were sufficiently severe that they asked to be restarted on clarithromycin. When observed on Aug. 15, 2002, they stated they had become “100% better” by Aug. 11, 2002. The patient was continued on clarithromycin at 500 mg b.i.d. and observed serially at weekly intervals on Aug. 22, 2002, Aug. 27, 2002, and Sep. 5, 2002.
These findings are similar to their clinical history over the past several years with respect to clarithromycin therapy and response of connective tissue symptoms.

[3] = test system: patient with chondrocalcinosis leading to pseudorheumatoid pseudogout syndrome; assay: Example 3: clinical observation of patient on clarithromycin; conditions: person; clarithromycin 500 mg b.i.d. begun two weeks prior for pneumonia
Protocol: A patient has severe ditTuse generalized chondrocalcinosis leading to pseudorheumatoid pseudogout syndrome. Given the intensity of their chronic synovitis and the lack of response to steroids as well as NSAIDs, they were put on methotrexate, 10 mg/week and infliximab ([…]®, Centocor, Inc.), after which they did satisfactorily. The patient had bilateral total knee replacements and, subsequently was taken off the infliximab when they developed a knee infection postoperatively. The patient continued to have diffuse aches and pains and joint swelling. When seen in the office on Mar. 12, 2002, they spontaneously asked whether the medicine they were taking for their pneumonia could have an effect on their arthritis. Apparently they had begun clarithromycin 500 mg b.i.d. for their pneumonia two weeks prior and said they had “never felt as well” with respect to their joint symptoms as they had during the subsequent several days. They continued to feel much improved and asked if they could stay on the antibiotic.

[4] = test system: patient with chondrocalcinosis leading to pseudorheumatoid pseudogout syndrome; assay: Example 4: clarithromycin re-challenge of Example 3 patient, symptoms and laboratory assessments
Protocol: as §1, with “3,” for “1,”, “C-reactive 1 5” for “C-reactive”, “2.” for “1.”
On Jun. 15, 2002 the patient from Example 3 underwent a right pneumonectomy for treatment of recurrent lung cancer. During that hospitalization, clarithromycin was discontinued.
The patient underwent formal re-challenge with clarithromycin on Aug. 19, 2002 (Table 2). At that time their medications included ibuprofen at 400 mg/day, acetaminophen at 500 mg/as needed, prednisone at 5 mg/daily, CELEXA™ (Forest Pharmaceuticals, Inc.) at […], REMURON® (Organon Inc.) at 7.5 mg/h.s., DURICEF® (Bristol) at 500 mg b.i.d., TIMOPTIC® eye drops (Merck & Co.), and multi-vitamins. […] Clarithromycin at 500 mg b.i.d. was restarted on Aug. 20, 2002. When seen on Aug. […] 19, 2002. […] 28, 2002. On Sep. […] Ibuprofen was decreased to […] on Sep. 5, 2002. On Sep. […] On Sep.

[5] = Aug. 8, 2002, 10 days off clarithromycin
[6] = Aug. 15, 2002, clarithromycin restarted
[7] = Aug. 22, 2002, on clarithromycin
[8] = Aug. 27, 2002, on clarithromycin
[9] = Jul. 29, 2002, on clarithromycin 500 mg BID
[10] = Sep. 5, 2002, on clarithromycin
[11] = Oct. 8, 2002, off clarithromycin
[12] = Sep. 4, 2002, on clarithromycin
[13] = Sep. 9, 2002, on clarithromycin
[14] = Sep. 23, 2002, off clarithromycin

## CC[C@H]1OC(=O)[C@H](C)[C@@H](O[C@H]2C[C@@](C)(OC)[C@@H](O)[C@H](C)O2)[C@H](C)[C@@H](O[C@@H]2O[C@H](C)C[C@H](N(C)C)[C@H]2O)[C@](C)(OC)C[C@@H](C)C(=O)[C@H](C)[C@@H](O)[C@]1(C)O [clarithromycin, 6-O-methylerythromycin]
[1]; back on 500 mg/bid after 250 mg/bid
  Symptoms: improved essentially completely
[1]; clarithromycin 500 mg b.i.d. begun December 1998
  symptoms with respect to connective tissue changes: significantly improved
[1]; dose reduced to 250 mg/bid
  Symptoms: symptoms returned
[1]; last seen Feb. 12, 2002, continued clarithromycin
  undifferentiated connective disease status: under control
[1]; reduced dose of 750 mg/day
  joint symptoms: increased swelling of the hands, painful wrists, knee swelling and hand stiffness
[2]; [5]
  ESR: 25 mm/hr
  IL-6: 2.1 pg/mL
  Symptoms: generalized joint pain, associated with swelling
[2]; Aug. 15, 2002, clarithromycin 500 mg b.i.d. restarted, better on Aug. 11, 2002
  Symptoms: 100% better
[2]; [6]
  CPR: <0.3 mg/dL
  ESR: 21 mm/hr
  IL-6: 0.9 pg/mL
[2]; [7]
  CPR: <0.3 mg/dL
  ESR: 34 mm/hr
  IL-6: 0.7 pg/mL
[2]; Aug. 22, 2002, on clarithromycin 500 mg b.i.d.
  Symptoms: Doing well
[2]; [8]
  CPR: <0.3 mg/dL
  ESR: 21 mm/hr
  IL-6: 1.1 pg/mL
[2]; Aug. 27, 2002, on clarithromycin 500 mg b.i.d.
  Symptoms: Doing well
[2]; [9]
  CPR: <0.3 mg/dL
  ESR: 29 mm/hr
[2]; Jul. 29, 2002, on clarithromycin 500 mg po BID, discontinued at this visit
  Symptoms: Good Control
[2]; [10]
  CPR: <0.3 mg/dL
  ESR: 34 mm/hr
  IL-6: 1 pg/mL
[2]; Sep. 5, 2002, on clarithromycin 500 mg b.i.d.
  Symptoms: Doing well
[2]; over the re-challenge Jul. 29 to Sep. 5, 2002
  change in ESR, CRP, Interleukin-1, or Interleukin-6: no significant change
[3]
  joint symptoms: much improved
[4]; [8]
  CPR: 0.74 mg/dL
  ESR: 18 mm/hr
  IL-6: 6.8 pg/mL
[4]; Aug. 27, 2002, on clarithromycin 500 mg BID since Aug. 20, 2002, compared to baseline Aug. 19, 2002
  Symptoms: had not observed improvement; also recorded: No change
[4]; [11]
  CPR: 0.77 mg/dL
  ESR: 10 mm/hr
  IL-6: 1.8 pg/mL
[4]; Oct. 8, 2002, off clarithromycin, prednisone 5 mg QD
  Symptoms: continued active
[4]; [12]
  CPR: 0.78 mg/dL
  ESR: 10 mm/hr
  IL-6: 2.5 pg/mL
[4]; Sep. 4, 2002, on clarithromycin, ibuprofen increased to 800 mg/day on Aug. 28, 2002
  Symptoms: 40% better
[4]; [13]
  CPR: 1.06 mg/dL
  ESR: 11 mm/hr
  IL-6: 4.5 pg/mL
[4]; Sep. 9, 2002, on clarithromycin, discontinued at this visit, ibuprofen 600 mg/day
  Symptoms: No change
[4]; Sep. 16, 2002, off clarithromycin, ibuprofen 400 mg/day
  Symptoms: Worse
[4]; Sep. 16, 2002, one week following clarithromycin discontinuation, baseline 2.2
  IL-6: 33.1 pg/mL
[4]; [14]
  ESR: 37 mm/hr
  IL-6: 6.4 pg/mL
  Symptoms: continued worsening; also recorded: Worse
[4]; Sep. 23, 2002, off clarithromycin, baseline 0.85
  CPR: 3.51 mg/dL
[4]; clarithromycin begun again as antimicrobial therapy after pneumonectomy
  joints: once again improved
[4]; five to six days following discontinuation of clarithromycin, hospitalization June 2002
  arthritis symptoms: significantly worse
[4]; off clarithromycin, increase from 11 mm at baseline, date not given in the text
  ESR: 37 mm
[4]; over the re-challenge Aug. 19 to Oct. 8, 2002
  change in IL-1: No significant change
